Data taken from PubChem BioAssay (NCI).
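Dose response: 5 concentrations. Exposure: 48 h. Format: 96-well plates. Endpoint: linear interpolation; highest concentration if not reached. The concentration for full growth arrest is given as TGI.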

What was measured:
Experiment in all cases: DTP human tumour cell line panel, 48 h
NCI-H23 lung = test system: NCI-H23 lung
SK-MEL-28 melanoma = test system: SK-MEL-28 melanoma
SNB-19 CNS = test system: SNB-19 CNS
NCI-H226 lung = test system: NCI-H226 lung
KM12 colon = test system: KM12 colon
SF-295 CNS = test system: SF-295 CNS
HOP-92 NSCLC = test system: HOP-92 NSCLC
LXFL 529 NSCLC = test system: LXFL 529 NSCLC
HOP-62 NSCLC = test system: HOP-62 NSCLC
IGROV1 ovarian = test system: IGROV1 ovarian
ACHN renal = test system: ACHN renal
SK-MEL-5 melanoma = test system: SK-MEL-5 melanoma
OVCAR-3 ovarian = test system: OVCAR-3 ovarian
OVCAR-8 ovarian = test system: OVCAR-8 ovarian
DMS 114 small cell lung = test system: DMS 114 small cell lung
NCI-H460 lung = test system: NCI-H460 lung
HL-60(TB) leukemia = test system: HL-60(TB) leukemia
SK-OV-3 ovarian = test system: SK-OV-3 ovarian
HOP-18 NSCLC = test system: HOP-18 NSCLC
OVCAR-5 ovarian = test system: OVCAR-5 ovarian
HCT-116 colon = test system: HCT-116 colon
DMS 273 small cell lung = test system: DMS 273 small cell lung
COLO 205 colon = test system: COLO 205 colon
HT29 colon = test system: HT29 colon
MOLT-4 leukemia = test system: MOLT-4 leukemia
HCT-15 colon = test system: HCT-15 colon
SNB-75 CNS = test system: SNB-75 CNS
A549 NSCLC = test system: A549 NSCLC
LOX IMVI melanoma = test system: LOX IMVI melanoma
K-562 leukemia = test system: K-562 leukemia
786-0 renal = test system: 786-0 renal
TK-10 renal = test system: TK-10 renal
M14 melanoma = test system: M14 melanoma
UACC-62 melanoma = test system: UACC-62 melanoma
SW-620 colon = test system: SW-620 colon
CAKI-1 renal = test system: CAKI-1 renal
HCC-2998 colon = test system: HCC-2998 colon
MALME-3M melanoma = test system: MALME-3M melanoma
A498 renal = test system: A498 renal
SN12C renal = test system: SN12C renal
RPMI-8226 leukemia = test system: RPMI-8226 leukemia
SF-539 CNS = test system: SF-539 CNS
OVCAR-4 ovarian = test system: OVCAR-4 ovarian
U251 CNS = test system: U251 CNS
RXF 393 renal = test system: RXF 393 renal
M19-MEL melanoma = test system: M19-MEL melanoma
RXF-631 renal = test system: RXF-631 renal
UO-31 renal = test system: UO-31 renal
KM20L2 colon = test system: KM20L2 colon
NCI-H522 lung = test system: NCI-H522 lung
SK-MEL-2 melanoma = test system: SK-MEL-2 melanoma
SF-268 CNS = test system: SF-268 CNS
DLD-1 colon = test system: DLD-1 colon
EKVX NSCLC = test system: EKVX NSCLC
UACC-257 melanoma = test system: UACC-257 melanoma

Measured: TGI

CN(C)C(=S)OC(Cn1cncn1)c1ccc(Cl)cc1Cl (stereo not given)
> 100 µM: all assays above
